# Patent US12540164B2, “Peptides for treatment and prevention of nonalcoholic fatty liver disease and fibrosis” (UNIVERSITE DE STRASBOURG, priority 2017, dated 2026)
# Entries after “also recorded” stand apart in the source; their conditions may differ. Ends that are not written are not given here.
# Assays:
# [1] = STAM model of non-alcoholic steatohepatitis: body weight, viability and general condition; type: in vivo; details: STAM NASH mice, any day during the treatment period
# Description: (§1) NASH was induced in 12 male mice by a single subcutaneous injection of 200 μg streptozotocin (STZ, Sigma-Aldrich, USA) solution 2 days after birth and feeding with high fat diet (HFD, 57 kcal % fat, Cat #HFD32, CLEA Japan, Inc., Japan) after 4 weeks of age.
# (§2) The peptide was administered at a dose of 25 microgram (μg) per mouse once weekly.
# (§3) Six NASH mice were subcutaneously in the adipose tissue administered vehicle supplemented with ADPIF peptide at a dose of […] per mouse once weekly from 4 to 9 weeks of age.
# The viability, clinical signs and behavior were monitored daily. Body weight was recorded before the treatment. […] The animals were sacrificed at 9 weeks of age by exsanguination through direct cardiac puncture under isoflurane anesthesia (Pfizer Inc.).
# [2] = test system: Sterol regulatory element binding transcription factor 1 (Srebf1); test: Hepatic expression of Srebf1 (q-PCR); type: in vivo; details: 11 days post injection in the adipose tissue; DIO male mice; vs control
# From the text: (§4) AdipoRed Staining of Liver Sections
# [3] = STAM model of non-alcoholic steatohepatitis: liver triglyceride content; type: in vivo; details: STAM NASH mice
# Description: as §1
# The peptide was administered subcutaneously in the adipose tissue in a volume of […] per mouse.
# as §2
# Liver total lipid-extracts were obtained by Folch's method (Folch J. et al., J. Biol. Chem. 1957; 226: 497). Liver samples were homogenized in chloroform-methanol (2:1, v/v) and incubated overnight at room temperature. After washing with chloroform-methanol-water (8:4:3, v/v/v), the extracts were evaporated to dryness, and dissolved in isopropanol. Liver triglyceride content was measured by Triglyceride E-test (Wako Pure Chemical Industries, Ltd., Japan).
# as §3
# LOXL2 [4] = test: LOXL2 ELISA on liver extracts; type: in vivo; details: 3 months post unique injection in subcutaneous adipose tissue, DIO male mice, n=4
# From the text: (§5) LOXL2 is the enzyme promoting the development of fibrotic lesions by favoring the polymerization of collagen and FABP4 is a protein involved in lipid metabolism whose level increases with increasing lipid deposition in the liver.
# (§6) For LOXL2 and GLP-1 measurements, the two commercially available kits: Lysyl Oxydase Like Protein 2 (LOXL2), Enzyme-linked Immunosorbent Assay Kit, Mus musculus, SEF552Mu, Cloud Clone Corp;
# (§7) For the measurements on the liver extracts, the same kit for LOXL2 was used and for FABP4, the commercial kit used was the Elisa kit for Fatty Acid Binding Protein 4, Adipocyte (FABP4), SEB693Mu, Cloud Clone Corp.
# FABP4 = FABP4 ELISA on liver extracts; type: in vivo; details: 3 months after single injection, DIO male mice
# From the text: as §5, §7
# FATP2 = test: Expression levels of FATPs and FFARs in adipose tissue by real-time PCR after peptide injection; type: in vivo, mice; details: 11 days post single injection in subcutaneous adipose tissue, GAPDH reference, n=4 per group
# Description: Mice were injected with a single dose of either scramble peptide or PATAD or ADPIF. 11 days post injection, the mice were euthanized and adipose tissue was sampled for RNA extraction followed by real-time PCR.
# For this study, mice were on a C57/BL6 genetic background. All animals were housed in a temperature and humidity controlled facility, with a 12 h-light/12 h-dark cycle fed during the whole phase mice will be fed with a 60% high fat diet from Research Diets (D12492), and tap water will be provided ad libitum. Mice were fed and tested regularly for glucose tolerance test for their glucose tolerance and once they were glucose intolerant they were used for treatment.
# All peptides were initially dissolved in DMSO and then diluted in sterile saline solution at a concentration of 10 ng/μL. 2.5 μL of each peptide (stapled or scrambled) were mixed and then injected directly in the subcutaneous adipose tissue in each mouse.
# ceramides = test: Hepatic ceramides content and profile (lipidomics); type: in vivo, mice; details: 3 injections, one per week, in subcutaneous adipose tissue
# From the text: ADPIF adipose tissue injection has proven to be unexpectedly liver protective relative to a specific decrease in expression levels of FATP2 in the adipose tissue and an associated profile of the FATPs and FFARs in the muscles and liver. As these changes impact circulating population of the different lipids. Ceramides are a group of biological active lipids known to be involved in NAFLD. We measured and determined the effect of ADPIF injections on the ceramides profile following 3 injections of ADPIF at a frequency of one injection per week in the subcutaneous adipose tissue.
# (§8) For the lipid composition in the different tissues and plasma, all samples were flashed frozen at the time of sampling, immediately after sacrifice, and were sent to the lipidomic core facility of Dijon, (Plateforme de Lipidomique-uBorgogne INSERM UMR866/Labex LipSTIC).
# GLP-1 = test: Circulating GLP-1 enzyme immunoassay in plasma; type: in vivo; details: 11 days post single adipose tissue injection, high fat/high glucose diet male mice
# Description: Mice were injected with a single dose of either scramble peptide or PATAD or ADPIF. 11 days post injection, the mice were euthanized, and plasma was obtained and used for determination of circulating GLP1 from mice with the indicated treatment.
# as §6
# RayBio Human/Mouse/Rat GLP-1 Enzyme Immunoassay Kit, EIA-GLP1, RayBiotech were used with the indicated procedures from the manufacturer.
# [5] = test system: lysophosphatidylcholines (LPCs); test: Lysophosphatidylcholines (LPC) lipid content in pancreas, adipose tissue, liver and plasma; type: in vivo, mice; details: 25 μg per mouse subcutaneous
# From the text: as §8
# LOXL2 [6] = test: Circulating (plasma) LOXL2 ELISA; type: in vivo; details: 3 months post a unique injection; DIO-NASH mice
# From the text: as §6
# [7] = test system: fatty acid synthase (Fasn); test: Hepatic expression of de novo lipogenesis gene Fasn (q-PCR); type: in vivo; details: 11 days post injection in the adipose tissue; DIO male mice; vs control
# From the text: as §4
# Collagen IV = test: Immunostaining of liver cryosections for Collagen IV (DIO-NASH); type: in vivo; details: DIO-NASH mice, 3 months after injection in subcutaneous adipose tissue; vs untreated
# Description: For immunofluorescence experiments, liver and kidneys freshly sampled were included in Optimal Cutting Temperature Compound™ (OCT™, Catalog #4583, Tissue-Tek® OCT™, Sakura® Finetek, Torrance, California, USA) and cryosections of 7 μm were cut with Cryostat Leica CM1950. Cryosections were washed with 1×PBS and fixated in 4% formaldehyde solution for 15 min (Catalog #: F555-4L, Sigma-Aldrich, Saint-Louis, Missouri, USA) and then permeabilized with 0.02% SDS-PBS for 30 seconds. Blocking solution was 5%-Bovine Serum Albumin (BSA) in PBS. Primary antibodies were diluted in blocking solution and incubated overnight and indicated secondary antibodies were diluted in PBS for 30 minutes. Nuclei were counterstained with Hoechst (Catalog #: D1306, Invitrogen, Carlsbad, California, USA). Slides were then mounted with Vectashield® Mounting Medium (Catalog #: H-1000, Vector Laboratories, Burlingame, California, USA). Images were acquired and analyzed with Zeiss Imager.Z2 microscope equipped with either Zeiss AxioVision or Zeiss ZEN 2012 software (Carl Zeiss Inc., Oberkochen, Germany). Anti-Collagen IV antibody, ab6586 from Abcam and LOXL2 antibody, GTX105085 from GeneTex were used.
sequence,measurement,setting,value
"VECTTREKEVLASLDKAAFLTQLHS (not fully specified (bridges)) [ADPIF, R and S carry the stapling, preferably 2-(7-octenyl)arginine and 2-(4-pentenyl)serine]",mean body weight compared with the Vehicle group,[1],no significant differences
same,hepatic expression level of Srebf1,[2],repressed; also recorded: significantly decreased
same,Liver triglyceride (mean ± SD),"[3]; 25 μg per mouse SC once weekly 4-9 wks of age, sacrifice 9 wks, n = 6",35.1 ± 17.8 mg/g liver
same,liver triglyceride content compared with the Vehicle group,"[3]; 25 μg per mouse SC once weekly 4-9 wks, Student's t-test",significant decrease
same,hepatic protein content of LOXL2,LOXL2 [4],more potent than PATAD; also recorded: significant decrease
same,hepatic protein content of FABP4,FABP4,more potent than PATAD; also recorded: significantly reduced
same,FATP2 expression level in the adipose tissue,FATP2,more active than PATAD peptide
same,hepatic ceramides content,ceramides,globally induces a decrease
same,circulating levels of GLP-1,GLP-1,"restored high circulating levels of GLP1, with ADPIF inducing a greater increase than PATAD; also recorded: more active than PATAD peptide; also recorded: restore GLP1 circulating levels back to lean controls"
same,level of LPC 18:2,[5]; adipose tissue and liver,most prominent reduction; also recorded: mostly reduced
same,levels of lysophosphatidylcholines (LPCs) in the tissues analyzed,"[5]; adipose tissue, liver, plasma, euthanized 1 week after last injection",effective in reducing selective LPCS; also recorded: selective decrease of certain LPCs
same,circulation (plasma) levels of LOXL2,LOXL2 [6],significantly reduced; also recorded: reduced the LOXL2 levels by half
same,hepatic expression level of fatty acid synthase (Fasn),[7],repressed; also recorded: significantly decreased
same,Collagen IV expression in liver (immunostaining),Collagen IV,effective in preventing the progression of fibrotic markers; also recorded: reduced
